# Calls of active or inactive are those of the source. How the calls were made is not given here.
# Legend:
# Assay in all cases: PubChem AID 1788
# [1] = target: Mu-type opioid receptor (Homo sapiens) (UniProt P35372); conditions: MDS Pharma lead profiling panel, radioligand binding; Opiate m (OP3, MOP) (human); at 10 µM; active compounds read high
# Sigma s2 (rat) = conditions: MDS Pharma lead profiling panel, radioligand binding, at 10 µM, active compounds read high
# Adrenergic a1B (rat) = conditions: MDS Pharma lead profiling panel, radioligand binding, at 10 µM, active compounds read high
# Glutamate NMDA (rat) = conditions: MDS Pharma lead profiling panel, radioligand binding, at 10 µM, active compounds read high
# [2] = target: Alpha-2A adrenergic receptor (Homo sapiens) (UniProt P08913); conditions: MDS Pharma lead profiling panel, radioligand binding; Adrenergic a2A (human); at 10 µM; active compounds read high
# [3] = target: Muscarinic acetylcholine receptor M1 (Homo sapiens) (UniProt P11229); conditions: MDS Pharma lead profiling panel, radioligand binding, at 10 µM, active compounds read high
# [4] = target: 5-hydroxytryptamine receptor 1A (Homo sapiens) (UniProt P08908); conditions: MDS Pharma lead profiling panel, radioligand binding; Serotonin (5-Hydroxytryptamine) 5-HT1A (human); at 10 µM; active compounds read high
# Adrenergic a1D (human) = conditions: MDS Pharma lead profiling panel, radioligand binding, at 10 µM, active compounds read high
# Dopamine D4.2 (human) = conditions: MDS Pharma lead profiling panel, radioligand binding, at 10 µM, active compounds read high
# Adenosine A1 (human) = conditions: MDS Pharma lead profiling panel, radioligand binding, at 10 µM, active compounds read high
# Transporter, GABA (rat) = conditions: MDS Pharma lead profiling panel, radioligand binding, at 10 µM, active compounds read high
# [5] = target: D(1A) dopamine receptor (Homo sapiens) (UniProt P21728); conditions: MDS Pharma lead profiling panel, radioligand binding; Dopamine D1 (human); at 10 µM; active compounds read high
# [6] = target: D(3) dopamine receptor (Homo sapiens) (UniProt P35462); conditions: MDS Pharma lead profiling panel, radioligand binding; Dopamine D3 (human); at 10 µM; active compounds read high
# Adenosine A2 (human) = conditions: MDS Pharma lead profiling panel, radioligand binding, at 10 µM, active compounds read high
# Histamine H3 (human) = conditions: MDS Pharma lead profiling panel, radioligand binding, at 10 µM, active compounds read high
# Adrenergic a1A (rat) = conditions: MDS Pharma lead profiling panel, radioligand binding, at 10 µM, active compounds read high
# [7] = target: Neuropeptide Y receptor type 2 (Homo sapiens) (UniProt P49146); conditions: MDS Pharma lead profiling panel, radioligand binding; Neuropeptide Y Y2 (human); at 10 µM; active compounds read high
# [8] = target: Potassium Channel K ATP (hamster) (UniProt P49658); conditions: MDS Pharma lead profiling panel, radioligand binding, at 10 µM, active compounds read high
# Prostanoid EP4 (human) = conditions: MDS Pharma lead profiling panel, radioligand binding, at 10 µM, active compounds read high
# [9] = tested on: Transporter, Serotonin (5-Hydroxytryptamine) (SERT) (human); conditions: MDS Pharma lead profiling panel, radioligand binding, at 10 µM, active compounds read high
# [10] = tested on: Transporter, Dopamine (DAT) (human); conditions: MDS Pharma lead profiling panel, radioligand binding, at 10 µM, active compounds read high
# [11] = tested on: Nicotinic Acetylcholine (human); conditions: MDS Pharma lead profiling panel, radioligand binding, at 10 µM, active compounds read high
# [12] = tested on: Transporter, Norepinephrine (NET) (human); conditions: MDS Pharma lead profiling panel, radioligand binding, at 10 µM, active compounds read high
# Melatonin MT1 (human) = conditions: MDS Pharma lead profiling panel, radioligand binding, at 10 µM, active compounds read high
# [13] = target: Muscarinic acetylcholine receptor M3 (Homo sapiens) (UniProt P20309); conditions: MDS Pharma lead profiling panel, radioligand binding, at 10 µM, active compounds read high
# Purinergic P2Y (rat) = conditions: MDS Pharma lead profiling panel, radioligand binding, at 10 µM, active compounds read high
# [14] = tested on: Calcium channel N-type (rat); conditions: MDS Pharma lead profiling panel, radioligand binding, at 10 µM, active compounds read high
# [15] = tested on: Serotonin (5-Hydroxytryptamine) 5-HT3 (human); conditions: MDS Pharma lead profiling panel, radioligand binding, at 10 µM, active compounds read high
# Endothelin ETB (human) = conditions: MDS Pharma lead profiling panel, radioligand binding, at 10 µM, active compounds read high
# [16] = target: Neuropeptide Y receptor type 1 (Homo sapiens) (UniProt P25929); conditions: MDS Pharma lead profiling panel, radioligand binding; Neuropeptide Y Y1 (human); at 10 µM; active compounds read high
# Adenosine A3 (human) = conditions: MDS Pharma lead profiling panel, radioligand binding, at 10 µM, active compounds read high
# Thyroid Hormone (rat) = conditions: MDS Pharma lead profiling panel, radioligand binding, at 10 µM, active compounds read high
# [17] = tested on: Sodium Channel, Site 2 (rat); conditions: MDS Pharma lead profiling panel, radioligand binding, at 10 µM, active compounds read high
# Sequence of D(3) dopamine receptor (Homo sapiens) (P35462 whole entry, looked up): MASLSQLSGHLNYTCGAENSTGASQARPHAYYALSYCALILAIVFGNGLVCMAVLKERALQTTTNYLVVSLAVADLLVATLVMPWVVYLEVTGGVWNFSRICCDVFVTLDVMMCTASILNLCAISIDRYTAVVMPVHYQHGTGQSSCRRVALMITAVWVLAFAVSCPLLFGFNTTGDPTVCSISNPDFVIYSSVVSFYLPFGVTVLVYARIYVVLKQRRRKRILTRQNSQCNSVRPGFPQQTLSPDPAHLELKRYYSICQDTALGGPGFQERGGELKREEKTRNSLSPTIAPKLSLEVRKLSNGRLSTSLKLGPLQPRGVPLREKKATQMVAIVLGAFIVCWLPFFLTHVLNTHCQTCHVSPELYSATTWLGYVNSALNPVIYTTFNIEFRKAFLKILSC
# Sequence of Alpha-2A adrenergic receptor (Homo sapiens) (P08913 whole entry, looked up): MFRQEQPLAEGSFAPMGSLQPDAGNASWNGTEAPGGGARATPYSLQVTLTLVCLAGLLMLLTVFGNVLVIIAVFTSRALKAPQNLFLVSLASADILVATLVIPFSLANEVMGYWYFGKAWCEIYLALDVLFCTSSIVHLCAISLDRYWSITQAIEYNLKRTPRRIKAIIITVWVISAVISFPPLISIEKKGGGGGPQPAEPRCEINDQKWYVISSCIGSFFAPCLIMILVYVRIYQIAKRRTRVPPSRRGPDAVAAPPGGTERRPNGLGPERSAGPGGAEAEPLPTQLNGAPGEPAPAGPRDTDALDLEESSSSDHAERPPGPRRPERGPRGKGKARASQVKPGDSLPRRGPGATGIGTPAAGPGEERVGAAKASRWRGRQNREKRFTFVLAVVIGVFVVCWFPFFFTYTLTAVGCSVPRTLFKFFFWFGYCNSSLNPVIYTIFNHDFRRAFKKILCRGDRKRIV
# Sequence of Muscarinic acetylcholine receptor M1 (Homo sapiens) (P11229 whole entry, looked up): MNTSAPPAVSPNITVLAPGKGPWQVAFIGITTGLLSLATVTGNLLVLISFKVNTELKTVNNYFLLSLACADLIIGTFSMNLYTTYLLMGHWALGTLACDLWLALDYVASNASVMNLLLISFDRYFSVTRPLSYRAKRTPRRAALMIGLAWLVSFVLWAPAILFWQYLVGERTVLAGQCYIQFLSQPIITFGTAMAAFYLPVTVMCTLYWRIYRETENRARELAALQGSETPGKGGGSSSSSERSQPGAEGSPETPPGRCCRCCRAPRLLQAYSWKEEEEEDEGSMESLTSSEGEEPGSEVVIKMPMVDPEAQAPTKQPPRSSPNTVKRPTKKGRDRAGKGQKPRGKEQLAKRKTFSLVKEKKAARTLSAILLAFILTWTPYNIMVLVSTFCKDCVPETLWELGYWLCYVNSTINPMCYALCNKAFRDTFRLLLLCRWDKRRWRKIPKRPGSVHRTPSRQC
# Sequence of Neuropeptide Y receptor type 2 (Homo sapiens) (P49146 whole entry, looked up): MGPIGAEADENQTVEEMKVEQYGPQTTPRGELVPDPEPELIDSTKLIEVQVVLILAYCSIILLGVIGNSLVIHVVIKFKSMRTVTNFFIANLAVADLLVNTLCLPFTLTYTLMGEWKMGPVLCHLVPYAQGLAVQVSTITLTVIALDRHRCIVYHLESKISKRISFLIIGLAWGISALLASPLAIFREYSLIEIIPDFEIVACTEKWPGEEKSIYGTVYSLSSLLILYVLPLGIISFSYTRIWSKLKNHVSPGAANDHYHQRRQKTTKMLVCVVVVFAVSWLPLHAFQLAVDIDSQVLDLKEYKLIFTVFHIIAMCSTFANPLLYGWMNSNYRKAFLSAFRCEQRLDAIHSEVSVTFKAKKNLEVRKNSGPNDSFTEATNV
# Sequence of Muscarinic acetylcholine receptor M3 (Homo sapiens) (P20309 whole entry, looked up): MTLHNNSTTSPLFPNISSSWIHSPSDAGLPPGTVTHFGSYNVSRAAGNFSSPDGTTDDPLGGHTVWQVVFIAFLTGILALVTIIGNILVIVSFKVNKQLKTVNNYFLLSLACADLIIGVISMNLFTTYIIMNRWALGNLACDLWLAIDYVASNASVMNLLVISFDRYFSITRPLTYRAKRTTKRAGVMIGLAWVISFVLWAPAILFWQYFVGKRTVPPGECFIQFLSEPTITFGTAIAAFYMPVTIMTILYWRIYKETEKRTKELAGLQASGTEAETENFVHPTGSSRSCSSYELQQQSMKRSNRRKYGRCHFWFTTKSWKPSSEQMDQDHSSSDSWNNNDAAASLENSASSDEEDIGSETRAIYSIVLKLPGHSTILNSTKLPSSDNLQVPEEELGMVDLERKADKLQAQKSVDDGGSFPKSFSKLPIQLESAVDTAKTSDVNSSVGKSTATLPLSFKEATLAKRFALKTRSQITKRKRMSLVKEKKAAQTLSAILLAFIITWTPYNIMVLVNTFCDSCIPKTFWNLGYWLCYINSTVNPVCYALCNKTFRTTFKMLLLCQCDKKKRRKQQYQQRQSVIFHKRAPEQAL
# Sequence of D(1A) dopamine receptor (Homo sapiens) (P21728 whole entry, looked up): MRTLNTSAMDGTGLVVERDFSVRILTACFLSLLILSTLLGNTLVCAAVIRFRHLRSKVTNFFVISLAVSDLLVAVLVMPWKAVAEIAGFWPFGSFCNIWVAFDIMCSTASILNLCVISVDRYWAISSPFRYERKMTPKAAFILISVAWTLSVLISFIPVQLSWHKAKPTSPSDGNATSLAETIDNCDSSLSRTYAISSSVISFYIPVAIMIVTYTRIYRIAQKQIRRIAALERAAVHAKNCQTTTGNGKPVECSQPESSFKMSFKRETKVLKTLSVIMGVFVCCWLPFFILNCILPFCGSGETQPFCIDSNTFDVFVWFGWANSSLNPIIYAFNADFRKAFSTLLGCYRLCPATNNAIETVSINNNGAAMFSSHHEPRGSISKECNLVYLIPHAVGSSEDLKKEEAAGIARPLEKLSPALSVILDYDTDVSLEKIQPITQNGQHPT
# Sequence of Mu-type opioid receptor (Homo sapiens) (P35372 whole entry, looked up): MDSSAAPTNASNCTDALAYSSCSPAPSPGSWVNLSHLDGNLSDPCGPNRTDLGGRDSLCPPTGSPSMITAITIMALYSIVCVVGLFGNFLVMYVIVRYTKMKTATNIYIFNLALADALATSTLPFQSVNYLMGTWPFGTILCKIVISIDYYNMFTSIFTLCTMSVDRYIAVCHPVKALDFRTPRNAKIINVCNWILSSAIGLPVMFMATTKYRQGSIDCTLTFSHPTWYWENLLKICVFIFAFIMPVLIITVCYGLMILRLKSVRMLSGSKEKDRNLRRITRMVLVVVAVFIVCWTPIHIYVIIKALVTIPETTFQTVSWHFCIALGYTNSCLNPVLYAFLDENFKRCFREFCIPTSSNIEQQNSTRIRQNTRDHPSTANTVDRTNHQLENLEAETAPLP
# Sequence of Neuropeptide Y receptor type 1 (Homo sapiens) (P25929 whole entry, looked up): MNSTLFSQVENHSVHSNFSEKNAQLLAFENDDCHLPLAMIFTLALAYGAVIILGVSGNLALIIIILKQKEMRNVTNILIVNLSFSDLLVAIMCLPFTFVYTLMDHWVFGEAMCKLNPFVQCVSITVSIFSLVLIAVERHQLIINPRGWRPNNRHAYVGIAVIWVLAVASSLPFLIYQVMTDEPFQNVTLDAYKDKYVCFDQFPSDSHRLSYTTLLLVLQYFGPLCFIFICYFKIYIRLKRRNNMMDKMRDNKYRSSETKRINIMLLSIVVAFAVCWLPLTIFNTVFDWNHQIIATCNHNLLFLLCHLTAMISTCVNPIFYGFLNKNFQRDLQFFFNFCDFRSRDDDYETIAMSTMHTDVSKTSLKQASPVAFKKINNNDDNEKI
# Sequence of Potassium Channel K ATP (hamster) (P49658 whole entry, looked up): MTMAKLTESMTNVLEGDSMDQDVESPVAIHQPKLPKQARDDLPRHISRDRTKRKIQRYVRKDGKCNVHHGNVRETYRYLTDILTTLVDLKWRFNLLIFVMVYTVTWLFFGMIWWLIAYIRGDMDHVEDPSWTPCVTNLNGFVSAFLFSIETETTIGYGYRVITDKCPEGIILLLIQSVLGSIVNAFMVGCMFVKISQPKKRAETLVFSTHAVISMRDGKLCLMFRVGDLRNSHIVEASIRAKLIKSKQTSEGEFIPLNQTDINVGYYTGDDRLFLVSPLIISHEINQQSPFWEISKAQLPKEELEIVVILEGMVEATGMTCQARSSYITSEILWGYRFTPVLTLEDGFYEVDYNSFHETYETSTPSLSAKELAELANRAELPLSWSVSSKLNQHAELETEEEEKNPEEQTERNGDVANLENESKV
# Sequence of 5-hydroxytryptamine receptor 1A (Homo sapiens) (P08908 whole entry, looked up): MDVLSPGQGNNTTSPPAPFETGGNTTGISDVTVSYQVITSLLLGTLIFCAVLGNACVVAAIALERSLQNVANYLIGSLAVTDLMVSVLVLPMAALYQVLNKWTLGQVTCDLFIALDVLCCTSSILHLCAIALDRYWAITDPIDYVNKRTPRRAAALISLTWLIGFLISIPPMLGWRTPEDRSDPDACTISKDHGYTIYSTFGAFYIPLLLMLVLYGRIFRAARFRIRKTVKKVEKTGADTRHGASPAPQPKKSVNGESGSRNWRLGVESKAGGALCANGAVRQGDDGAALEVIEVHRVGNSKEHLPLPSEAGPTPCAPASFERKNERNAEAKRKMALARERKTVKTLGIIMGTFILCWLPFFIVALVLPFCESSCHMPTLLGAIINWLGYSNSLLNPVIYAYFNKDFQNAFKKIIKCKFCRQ
compound,measurement,setting,value
CCOC(=O)N1CCC(NCCNC(=O)c2ccccc2C)CC1,inhibition,[1],-4% (inactive)
same,inhibition,Sigma s2 (rat),44% (inactive)
same,inhibition,Adrenergic a1B (rat),20% (inactive)
same,inhibition,Glutamate NMDA (rat); Glycine site,-11% (inactive)
same,inhibition,Glutamate NMDA (rat); Phencyclidine site,7% (inactive)
same,inhibition,Glutamate NMDA (rat); agonism site,13% (inactive)
same,inhibition,[2],22% (inactive)
same,inhibition,[3],19% (inactive)
same,inhibition,[4],25% (inactive)
same,inhibition,Adrenergic a1D (human),28% (inactive)
same,inhibition,Dopamine D4.2 (human),52% (inactive)
same,inhibition,Adenosine A1 (human),-4% (inactive)
same,inhibition,"Transporter, GABA (rat)",3% (inactive)
same,inhibition,[5],5% (inactive)
same,inhibition,[6],48% (inactive)
same,inhibition,Adenosine A2 (human),7% (inactive)
same,inhibition,Histamine H3 (human),11% (inactive)
same,inhibition,Adrenergic a1A (rat),53%
same,inhibition,[7],12% (inactive)
same,inhibition,[8],-9% (inactive)
same,inhibition,Prostanoid EP4 (human),3% (inactive)
same,inhibition,[9],-5% (inactive)
same,inhibition,[10],-1% (inactive)
same,inhibition,[11],2% (inactive)
same,inhibition,[12],1% (inactive)
same,inhibition,Melatonin MT1 (human),25% (inactive)
same,inhibition,[13],-14% (inactive)
same,inhibition,Purinergic P2Y (rat),-2% (inactive)
same,inhibition,[14],8% (inactive)
same,inhibition,[15],2% (inactive)
same,inhibition,Endothelin ETB (human),-4% (inactive)
same,inhibition,[16],0% (inactive)
same,inhibition,Adenosine A3 (human),7% (inactive)
same,inhibition,Thyroid Hormone (rat),-8% (inactive)
same,inhibition,[17],-7% (inactive)
